# Experimental data taken from patent US20250360235A1, “RADI[…] AND METHOD FOR RADIOLABELLING” (Telix Innovations SA, priority 2024, published 2025).
# Assay: Radiochemical purity by HPLC over time after radiolabelling
# Assay type: physicochemical
# Description: Table 1 to Table 5 show the results of various radiolabelling experiments on radiochemical purity and the chelation yield. The radiolabelling experiments in the tables are carried out as described in: • Example 1 for when the gallium-68 source is GE Liquid target generator and EZAG GalliaPharm generator; • Example 2 for when the gallium-68 source is IRE Galli Eo generator; • Example 3 for when the gallium-68 source is GE solid target generator;
# However, the experiments were carried out with the amount of ascorbic acid as indicated in the Tables 1 to 5, and the activity as indicated in the Tables 1 to 5. Radiochemical purities were measured at various times (T0, T1, T4, T6) after the radiolabelled experiments have been conducted.
# The kits of Example 1, Example 2 or Example 3, with amounts of ascorbic acid as set out in Table 7 were used in the experiments for the ascorbic acid bracketing matrix. Three strengths of [^68Ga]Ga-PSMA-11 will be tested, i.e. 50 mCi/ml, 7 mCi/ml and 1 mCi/ml. Radiochemical purity was determined at different time points (TO, T1, T4 or T6), as set out in Table 7.
structure (smiles),measurement,setting,value
"O=C([O-])CN(CCN(CC(=O)[O-])Cc1cc(CCC(=O)NCCCCCC(=O)NCCCC[C@H](NC(=O)N[C@@H](CCC(=O)O)C(=O)O)C(=O)O)ccc1[O-])Cc1cc(CCC(=O)O)ccc1[O-].[68Ga+3].[OH3+] [[^68Ga]PSMA-11, gallium-68 radiolabelled Glu-urea-Lys-HBED-CC (gozetotide or PSMA-11)]",Radiochemical Purity (HPLC) Ga-68 PSMA-11 (%),"1 mg ascorbic acid, 58.7-71.1 mCi, 7.47-8.99 mCi/mL, GE Liquid target, average of 3, T0",100%
same,Radiochemical Purity (HPLC) Ga-68 PSMA-11 (%),"1 mg ascorbic acid, 58.7-71.1 mCi, 7.47-8.99 mCi/mL, GE Liquid target, average of 3, T4 (4 h)",100%
same,Radiochemical Purity (HPLC) Ga-68 PSMA-11 (%),"1 mg ascorbic acid, 58.7-71.1 mCi, 7.47-8.99 mCi/mL, GE Liquid target, n=3, T0",C (C = conforms to specifications)
same,Radiochemical Purity (HPLC) Ga-68 PSMA-11 (%),"1 mg ascorbic acid, 58.7-71.1 mCi, 7.47-8.99 mCi/mL, GE Liquid target, n=3, T4 (4 h)",C (C = conforms to specifications)
same,Radiochemical Purity (HPLC) Ga-68 PSMA-11 (%),"2.5 mg ascorbic acid, 49.9-76.9 mCi, 6.31-9.72 mCi/mL, GE Liquid target, average of 3, T0",100%
same,Radiochemical Purity (HPLC) Ga-68 PSMA-11 (%),"2.5 mg ascorbic acid, 49.9-76.9 mCi, 6.31-9.72 mCi/mL, GE Liquid target, average of 3, T4 (4 h)",100%
same,Radiochemical Purity (HPLC) Ga-68 PSMA-11 (%),"2.5 mg ascorbic acid, 49.9-76.9 mCi, 6.31-9.72 mCi/mL, GE Liquid target, n=3, T0",C (C = conforms to specifications)
same,Radiochemical Purity (HPLC) Ga-68 PSMA-11 (%),"2.5 mg ascorbic acid, 49.9-76.9 mCi, 6.31-9.72 mCi/mL, GE Liquid target, n=3, T4 (4 h)",C (C = conforms to specifications)
same,Radiochemical Purity (HPLC) Ga-68 PSMA-11 (%),"5 mg ascorbic acid, 60-69.9 mCi, 7.61-8.81 mCi/mL, 3 × GE Liquid Target, 3 × EZAG GalliaPharm, average of 6, T0",100%
same,Radiochemical Purity (HPLC) Ga-68 PSMA-11 (%),"5 mg ascorbic acid, 60-69.9 mCi, 7.61-8.81 mCi/mL, 3 × GE Liquid Target, 3 × EZAG GalliaPharm, average of 6, T4 (4 h)",100%
same,Radiochemical Purity (HPLC) Ga-68 PSMA-11 (%),"5 mg ascorbic acid, 60-69.9 mCi, 7.61-8.81 mCi/mL, 3 × GE Liquid Target, 3 × EZAG GalliaPharm, n=6, T0",C (C = conforms to specifications)
same,Radiochemical Purity (HPLC) Ga-68 PSMA-11 (%),"5 mg ascorbic acid, 60-69.9 mCi, 7.61-8.81 mCi/mL, 3 × GE Liquid Target, 3 × EZAG GalliaPharm, n=6, T4 (4 h)",C (C = conforms to specifications)
same,Radiochemical Purity (HPLC) Ga-68 PSMA-11 (%),"10 mg ascorbic acid, 514-520 mCi, 49.0-66.1 mCi/mL, GE Solid Target, average of 3, T0",100%
same,Radiochemical Purity (HPLC) Ga-68 PSMA-11 (%),"10 mg ascorbic acid, 514-520 mCi, 49.0-66.1 mCi/mL, GE Solid Target, average of 3, T6 (6 h)",100%
same,Radiochemical Purity (HPLC) Ga-68 PSMA-11 (%),"10 mg ascorbic acid, 514-520 mCi, 49.0-66.1 mCi/mL, GE Solid Target, n=3, T0",C (C = conforms to specifications)
same,Radiochemical Purity (HPLC) Ga-68 PSMA-11 (%),"10 mg ascorbic acid, 514-520 mCi, 49.0-66.1 mCi/mL, GE Solid Target, n=3, T6 (6 h)",C (C = conforms to specifications)
same,Radiochemical Purity (HPLC) Ga-68 PSMA-11 (%),"15 mg ascorbic acid, 10.0-18.4 mCi, 0.95-1.77 mCi/mL, 1 × EZAG GalliaPharm, 2 × IRE Galli Eo, average of 3, T0",100%
same,Radiochemical Purity (HPLC) Ga-68 PSMA-11 (%),"15 mg ascorbic acid, 10.0-18.4 mCi, 0.95-1.77 mCi/mL, 1 × EZAG GalliaPharm, 2 × IRE Galli Eo, average of 3, T1 (1 h)",100%
same,Radiochemical Purity (HPLC) Ga-68 PSMA-11 (%),"15 mg ascorbic acid, 10.0-18.4 mCi, 0.95-1.77 mCi/mL, 1 × EZAG GalliaPharm, 2 × IRE Galli Eo, n=3, T0",C (C = conforms to specifications)
same,Radiochemical Purity (HPLC) Ga-68 PSMA-11 (%),"15 mg ascorbic acid, 10.0-18.4 mCi, 0.95-1.77 mCi/mL, 1 × EZAG GalliaPharm, 2 × IRE Galli Eo, n=3, T1 (1 h)",C (C = conforms to specifications)
same,Radiochemical Purity (HPLC) Ga-68 PSMA-11 (%),"15 mg ascorbic acid, 23.7-47.6 mCi, 2.26-4.53 mCi/mL, 1 × EZAG GalliaPharm, 2 × IRE Galli Eo, average of 3, T0",100%
same,Radiochemical Purity (HPLC) Ga-68 PSMA-11 (%),"15 mg ascorbic acid, 23.7-47.6 mCi, 2.26-4.53 mCi/mL, 1 × EZAG GalliaPharm, 2 × IRE Galli Eo, average of 3, T4 (4 h)",100%
same,Radiochemical Purity (HPLC) Ga-68 PSMA-11 (%),"15 mg ascorbic acid, 23.7-47.6 mCi, 2.26-4.53 mCi/mL, 1 × EZAG GalliaPharm, 2 × IRE Galli Eo, n=3, T0",C (C = conforms to specifications)
same,Radiochemical Purity (HPLC) Ga-68 PSMA-11 (%),"15 mg ascorbic acid, 23.7-47.6 mCi, 2.26-4.53 mCi/mL, 1 × EZAG GalliaPharm, 2 × IRE Galli Eo, n=3, T4 (4 h)",C (C = conforms to specifications)
same,Radiochemical Purity (HPLC) Ga-68 PSMA-11 (%),"20 mg ascorbic acid, 514-544 mCi, 48.3-51.9 mCi/mL, GE Solid Target, average of 2, T0",100%
same,Radiochemical Purity (HPLC) Ga-68 PSMA-11 (%),"20 mg ascorbic acid, 514-544 mCi, 48.3-51.9 mCi/mL, GE Solid Target, average of 2, T6 (6 h)",100%
same,Radiochemical Purity (HPLC) Ga-68 PSMA-11 (%),"20 mg ascorbic acid, 514-544 mCi, 48.3-51.9 mCi/mL, GE Solid Target, n=2, T0",C (C = conforms to specifications)
same,Radiochemical Purity (HPLC) Ga-68 PSMA-11 (%),"20 mg ascorbic acid, 514-544 mCi, 48.3-51.9 mCi/mL, GE Solid Target, n=2, T6 (6 h)",C (C = conforms to specifications)
same,Radiochemical Purity (HPLC) Ga-68 PSMA-11 (%),"25 mg ascorbic acid, 19.5-20.0 mCi, 1.85-1.90 mCi/mL, EZAG GalliaPharm, average of 2, T0",100%
same,Radiochemical Purity (HPLC) Ga-68 PSMA-11 (%),"25 mg ascorbic acid, 19.5-20.0 mCi, 1.85-1.90 mCi/mL, EZAG GalliaPharm, average of 2, T1 (1 h)",100%
same,Radiochemical Purity (HPLC) Ga-68 PSMA-11 (%),"25 mg ascorbic acid, 19.5-20.0 mCi, 1.85-1.90 mCi/mL, EZAG GalliaPharm, n=2, T0",C (C = all results conform to specifications)
same,Radiochemical Purity (HPLC) Ga-68 PSMA-11 (%),"25 mg ascorbic acid, 19.5-20.0 mCi, 1.85-1.90 mCi/mL, EZAG GalliaPharm, n=2, T1 (1 h)",C (C = all results conform to specifications)
same,Radiochemical Purity (HPLC) Ga-68 PSMA-11 (%),"25 mg ascorbic acid, 23.3-24 mCi, 2.22-2.28 mCi/mL, IRE Galli Eo, average of 2, T0",100%
same,Radiochemical Purity (HPLC) Ga-68 PSMA-11 (%),"25 mg ascorbic acid, 23.3-24 mCi, 2.22-2.28 mCi/mL, IRE Galli Eo, average of 2, T4 (4 h)",100%
same,Radiochemical Purity (HPLC) Ga-68 PSMA-11 (%),"25 mg ascorbic acid, 23.3-24 mCi, 2.22-2.28 mCi/mL, IRE Galli Eo, n=2, T0",C (C = all results conform to specifications)
same,Radiochemical Purity (HPLC) Ga-68 PSMA-11 (%),"25 mg ascorbic acid, 23.3-24 mCi, 2.22-2.28 mCi/mL, IRE Galli Eo, n=2, T4 (4 h)",C (C = all results conform to specifications)
same,Radiochemical Purity (HPLC) Ga-68 PSMA-11 (%),"25 mg ascorbic acid, 46.0-46.1 mCi, 4.38-4.39 mCi/mL, EZAG GalliaPharm, average of 2, T0",100%
same,Radiochemical Purity (HPLC) Ga-68 PSMA-11 (%),"25 mg ascorbic acid, 46.0-46.1 mCi, 4.38-4.39 mCi/mL, EZAG GalliaPharm, average of 2, T4 (4 h)",100%
same,Radiochemical Purity (HPLC) Ga-68 PSMA-11 (%),"25 mg ascorbic acid, 46.0-46.1 mCi, 4.38-4.39 mCi/mL, EZAG GalliaPharm, n=2, T0",C (C = all results conform to specifications)
